Reference: patent US20230149358A1, “COMBINATION CANCER THERAPY WITH PENTAAZA MACROCYCLIC RING COMPLEX AND HORMONE THERAPY AGENT” (Galera Labs, LLC, priority 2020, published 2023)
“Also recorded” adds a separate entry of the source.

Columns and labels:
mice lacking Sirt3 = settings: IP 2 mg/kg, 30 minutes before IR; cited from earlier work
T47D-MnSOD^K68Q cells = assay: Ki-67 staining, T47D-MnSOD^K68Q cells; assay type: cell-based, human; settings: 5 μM GC4419 and/or 1 μM 4-hydroxy-Tam for 5 days
Method: MCF7-MnSOD^K68Q cells (in FIGS. 17a and 17b) and T47D-MnSOD^K68Q cells (in FIGS. 17c and 17d) were treated with 5 μM GC4419 and/or 1 μM 4-hydroxy-Tam for 5 days, and then stained for Ki-67 as well as DAPI. Quantifications of average Ki-67 intensity are shown in the bar graphs. In FIG. 17e, MCF7 and MCF7-HTR cells were implanted into both hind limbs of nude mice and tumor volumes were measured every 3 days for 6 weeks and the number of tumors that successfully implanted versus the total number of mice infected with MCF7 and MCF7-HTR as well as the average tumor weight and tumor size are shown. Representative images are shown. All experiments were done in triplicate. Error bars represent ±1 SEM. ***p<0.001.
Cells seeded on glass coverslips were fixed in 4% paraformaldehyde and then blocked with 1% BSA and 10% normal goat serum in 1×PBS. Cells were incubated with anti-Ki-67 (c-bioscience) antibody in 1×PBS followed by incubation with goat anti-rabbit IgG conjugated with Alexa Fluor 647 (Invitrogen) in 1×PBS with 5% goat serum. Cells were washed in 1×PBS, mounted, and imaged with a fluorescence microscope. Fluorescence images were captured using a laser scanning confocal microscope (Nikon A1R). The paired images in all the figures were collected at the same gain and offset settings. Post-collection processing was applied uniformly to all paired images.

MCF-7-MnSOD^K68Q cells = assay: Clonogenic cell survival after 5 Gy ionizing radiation, MCF-7-MnSOD^K68Q cells; assay type: cell-based, human; settings: 5 μM GC4419 for 5 days, then 5 Gy ionizing radiation
Method: FIGS. 30a-30b are plots showing that expression of MnSOD^K68Q induces ionizing radiation resistance (IRR) in MCF7 cells. […] All experiments were done in triplicate. Error bars represent±1 SEM. ***p<0.001. Data were analyzed by a t-test.
To determine if the MnSOD-K68-Ac-ROS axis plays a role in IRR, it was hypothesized that MnSOD acetylation might play a role in how tumor cells are reprogrammed to produce a IRR phenotype. To address this idea, an established tumor cell line MCF-7 was infected with lenti-MnSOD^K68Q to induce MnSOD^K68Q expression, which was validated. MCF-7-MnSOD^WT and MCF-7-MnSOD^K68Q cells were treated without or with 5 Gy of IR.

LNCaP-MnSOD^K68Q cells = assay: Clonogenic cell survival, LNCaP-MnSOD^K68Q cells; assay type: cell-based; settings: ENZ with GC4419 (20 μM) for 5 days
Method: (§1) In FIG. 21(a), clonogenic cell survival experiments were performed in LNCaP-ENZR (left two bars) and LNCaP-MnSOD^K68Q (right two bars) treated with ENZ, with or without GC4419 (20 μM) for 5 days. […] Tumor volumes were measured three times a week for 46 days. For each group n=10. Error bars ±1 SEM. All experiments done in triplicate. **p<0.01.

[1] = tested on: Sirt3^−/−-MT-SIRT3^DN tumor cells; assay: Mammary allograft tumor growth (bioluminescence), Sirt3^−/−-MT-SIRT3^DN; assay type: in vivo; settings: Sirt3^−/−-MT-SIRT3^DN allografts, nude mice, IP every other day for five weeks
Method: Mice were subsequently injected with luciferin potassium (120 mg/kg) every week and signal intensity will be quantified. Error bars represent one SD from the mean.
These cell lines were subsequently infected with and selected to express either a SIRT3 wild-type (Sirt3^−/−-MT-SIRT3^WT) or deacetylation null (Sirt3^−/−-MT-SIRT3^DN) gene and a lenti-luciferase to assess tumor growth by bioluminescence. Allograft tumor mice were split into four groups: (1) control, untreated Sirt3^−/−-MT-SIRT3^DN; (2) GC4419 treated Sirt3^−/−-MT-SIRT3^DN; (3) control, untreated Sirt3^−/−-MT-SIRT3^WT; and (4) GC4419 treated Sirt3^−/−-MT-SIRT3^WT.

[2] = tested on: Tam resistant as well as loss of Sirt3 tumor cell lines; assay: In vitro Tam resistance, Tam resistant and loss of Sirt3 tumor cell lines; assay type: cell-based; settings: data not shown
[3] = tested on: LNCaP-MnSOD^K68Q xenografts; assay: LNCaP-MnSOD^K68Q hindlimb xenograft growth in nude mice; assay type: in vivo; settings: male nude mice; GC4419 10 mg/kg once per week, ENZ 25 mg/kg/day; 46 days
Method: as §1
Thus, it was surmised that restoring SOD activity, using the pentaaza macrocyclic ring complex GC4419, an agent that chemically detoxifies superoxide, would reverse/convert the ENZR to a sensitive phenotype. […] The dose and pharmacokinetics for GC4419 is based on data for murine models^92-93.

MCF7-HTR cells = assay: Clonogenic cell survival, hydroxy-Tam-resistant MCF7-HTR cells; assay type: cell-based, human; settings: 5 μM GC4419 for 5 days
Method: Clonogenic cell survival assay. For the clonogenic survival analysis, exponentially growing cells were replated using appropriate dilutions, and clonogenic survival was evaluated after 14 days in regular growth medium. Cells were stained with crystal violet, and colonies of >50 cells were counted and utilized to calculate clonogenic survival^46.
To test parameters indicative of oxidative stress, a clonogenic assay with hydroxy-Tam and antioxidant treatments was performed. Cells were plated at a density of 50,000 cells per 60-mm dish and treated with 1 μM hydroxy-Tam (Sigma) and 5 μM GC4419 (Galera Therapeutics) for a total of 120 h. This protocol was repeated with a fresh medium change every 24 h for 5 days. On day 6, the cells were trypsinized, counted, and replated in control medium using appropriate dilutions, and clonogenic survival was evaluated.

SMILES: [Cl][Mn][Cl].c1cc2nc(c1)CN[C@H]1CCCC[C@@H]1NCCN[C@H]1CCCC[C@@H]1NC2 [GC4419]
- liver damage (mice lacking Sirt3): attenuated liver damage
- Ki-67 staining (T47D-MnSOD^K68Q cells): reversed the increase in Ki-67 IHC staining; also recorded: decreased Ki-67 levels
- ionizing radiation resistance (IRR) phenotype, clonogenic cell survival (MCF-7-MnSOD^K68Q cells): reversed the IRR phenotype
- ENZ resistance phenotype (clonogenic cell survival) (LNCaP-MnSOD^K68Q cells): converted to a sensitive phenotype; also recorded: reversed the ENZR
- allograft tumor growth [1]: significant decrease in tumor growth; also recorded: tumor growth is inhibited
- Tam resistance in vitro [2]: reverses Tam resistance
- xenograft growth (tumor volume) [3]: significant inhibition of xenograft growth
- sensitivity to hydroxy-Tam (clonogenic cell survival) (MCF7-HTR cells): became sensitive to hydroxy-Tam
